# Measured values taken from US12655116B2, “Substituted isophthalic acid diamides” (Bayer Aktiengesellschaft, priority 2020, dated 2026).
# What was measured:
# ABUTH [1] = experiment: Pre-emergence herbicidal action against ABUTH; format: in vivo, Abutilon theophrasti; conditions: Abutilon theophrasti, 504 h
# Summary of the method: (§1)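 Herbicidal effect was assessed 3 weeks after treatment by visual comparison with untreated controls, 100% denoting dead plants. Aqueous WP or EC preparations had been applied at 600 to 800 l/ha with 0.2% wetting agent to the soil covering freshly sown seeds.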
# ALOMY [2] = experiment: Pre-emergence herbicidal action against ALOMY; format: in vivo, Alopecurus myosuroides; conditions: Alopecurus myosuroides, 504 h; 80 g/ha, pre-emergence, scored visually after 3 weeks vs untreated controls (100% = plants have died, 0% = like control plants)
# Summary of the method: as §1
# AMARE [3] = experiment: Pre-emergence herbicidal action against AMARE; format: in vivo, Amaranthus retroflexus; conditions: Amaranthus retroflexus, 504 h, scored visually after 3 weeks vs untreated controls, 100% = plants have died, 0% = like control plants
# Summary of the method: as §1
# AVEFA [4] = experiment: Pre-emergence herbicidal action against AVEFA; format: in vivo, Avena fatua; conditions: Avena fatua, 504 h; 80 g/ha, pre-emergence
# Summary of the method: as §1
# ECHCG [5] = experiment: Pre-emergence herbicidal action against ECHCG; format: in vivo, Echinochloa crus-galli; conditions: Echinochloa crus-galli, 504 h, 80 g/ha
# Summary of the method: as §1
# LOLRI [6] = experiment: Pre-emergence herbicidal action against LOLRI; format: in vivo, Lolium rigidum; conditions: Lolium rigidum, 504 h, 80 g/ha
# Summary of the method: as §1
# MATIN [7] = experiment: Pre-emergence herbicidal action against MATIN; format: in vivo, Matricaria inodora; conditions: Tripleurospermum inodorum, 504 h
# Summary of the method: as §1
# PHBPU [8] = experiment: Pre-emergence herbicidal action against PHBPU; format: in vivo, Pharbitis purpurea; conditions: Ipomoea purpurea, 504 h, dosage 80 g/ha
# Summary of the method: as §1
# POLCO = experiment: Pre-emergence herbicidal action against POLCO; format: in vivo, Polygonum convolvulus; conditions: Fallopia convolvulus, 504 h, dosage 80 g/ha
# Summary of the method: as §1
# SETVI [9] = experiment: Pre-emergence herbicidal action against SETVI; format: in vivo, Setaria viridis; conditions: Setaria viridis, 504 h
# Summary of the method: as §1
# STEME [10] = experiment: Pre-emergence herbicidal action against STEME; format: in vivo, Stellaria media; conditions: Stellaria media, 504 h
# Summary of the method: as §1
# VERPE [11] = experiment: Pre-emergence herbicidal action against VERPE; format: in vivo, Veronica persica; conditions: Veronica persica, 504 h, dosage 80 g/ha
# Summary of the method: as §1
# VIOTR [12] = experiment: Pre-emergence herbicidal action against VIOTR; format: in vivo, Viola tricolor; conditions: Viola tricolor, 504 h
# Summary of the method: as §1
# DIGSA [13] = experiment: Pre-emergence herbicidal action against DIGSA; format: in vivo, Digitaria sanguinalis; conditions: Digitaria sanguinalis, 504 h
# Summary of the method: as §1
# ABUTH [14] = experiment: Post-emergence herbicidal action against ABUTH; format: in vivo, Abutilon theophrasti; conditions: Abutilon theophrasti, 504 h, visual assessment about 3 weeks after treatment vs untreated controls
# Summary of the method: (§2)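 Herbicidal effect was scored visually in percent after about 3 weeks in the greenhouse. Plants had been raised in sandy loam and treated post-emergence at the one-leaf stage with formulated compound at 600 to 800 l/ha water plus 0.2% wetting agent.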
# ALOMY [15] = experiment: Post-emergence herbicidal action against ALOMY; format: in vivo, Alopecurus myosuroides; conditions: Alopecurus myosuroides, 504 h, dosage 20 g/ha, visual assessment about 3 weeks after treatment vs untreated controls
# Summary of the method: as §2
# AMARE [16] = experiment: Post-emergence herbicidal action against AMARE; format: in vivo, Amaranthus retroflexus; conditions: Amaranthus retroflexus, 504 h, 20 g/ha, visual assessment about 3 weeks after treatment, 100% = plants have died, 0% = like control plants
# Summary of the method: as §2
# AVEFA [17] = experiment: Post-emergence herbicidal action against AVEFA; format: in vivo, Avena fatua; conditions: Avena fatua, 504 h, 20 g/ha, visual assessment about 3 weeks after treatment, 100% = plants have died, 0% = like control plants
# Summary of the method: as §2
# ECHCG [18] = experiment: Post-emergence herbicidal action against ECHCG; format: in vivo, Echinochloa crus-galli; conditions: Echinochloa crus-galli, 504 h
# Summary of the method: as §2
# HORMU = experiment: Post-emergence herbicidal action against HORMU; format: in vivo, Hordeum murinum; conditions: Hordeum murinum, 504 h, dosage 20 g/ha
# Summary of the method: as §2
# LOLRI [19] = experiment: Post-emergence herbicidal action against LOLRI; format: in vivo, Lolium rigidum; conditions: Lolium rigidum, 504 h, dosage 20 g/ha
# Method: Seeds of monocotyledonous and dicotyledonous weed and crop plants are laid out in sandy loam soil in wood-fiber pots, covered with soil and cultivated in a greenhouse under good growth conditions. 2 to 3 weeks after sowing, the test plants are treated at the one-leaf stage. The compounds of the invention, formulated in the form of wettable powders (WP) or as emulsion concentrates (EC), are then sprayed onto the green parts of the plants in the form of an aqueous suspension or emulsion at a water application rate equivalent to 600 to 800 l/ha, with addition of 0.2% wetting agent. After the test plants have been left to stand in the greenhouse under optimal growth conditions for about 3 weeks, the action of the preparations is assessed visually in comparison to untreated controls (herbicidal action in percent (%): 100% activity=the plants have died, 0% activity=like control plants). […] The tables below illustrate, in an illustrative manner, the post-emergence herbicidal action of the compounds of the invention, the herbicidal activity being stated in percent.
# MATIN [20] = experiment: Post-emergence herbicidal action against MATIN; format: in vivo, Matricaria inodora; conditions: Tripleurospermum inodorum, 504 h, dosage 20 g/ha
# Summary of the method: as §2
# PHBPU [21] = experiment: Post-emergence herbicidal action against PHBPU; format: in vivo, Pharbitis purpurea; conditions: Ipomoea purpurea, 504 h
# Summary of the method: as §2
# SETVI [22] = experiment: Post-emergence herbicidal action against SETVI; format: in vivo, Setaria viridis; conditions: Setaria viridis, 504 h
# Summary of the method: as §2
# STEME [23] = experiment: Post-emergence herbicidal action against STEME; format: in vivo, Stellaria media; conditions: Stellaria media, 504 h
# Summary of the method: as §2
# VERPE [24] = experiment: Post-emergence herbicidal action against VERPE; format: in vivo, Veronica persica; conditions: Veronica persica, 504 h, 20 g/ha
# Summary of the method: as §2
# VIOTR [25] = experiment: Post-emergence herbicidal action against VIOTR; format: in vivo, Viola tricolor; conditions: Viola tricolor, 504 h, 20 g/ha
# Summary of the method: as §2
# DIGSA [26] = experiment: Post-emergence herbicidal action against DIGSA; format: in vivo, Digitaria sanguinalis; conditions: Digitaria sanguinalis, 504 h
# Summary of the method: as §2
smiles,measurement,setting,value
CCNC(=O)c1c(C(F)(F)F)ccc(C(=O)Nc2nnnn2C)c1SC [Example 1-82],pest or weed control at 80 g/ha,"ABUTH [1]; 80 g/ha, scored visually after 3 weeks vs untreated controls (100% = plants have died, 0% = like control plants)",100%
same,pest or weed control at 20 g/ha,"ABUTH [1]; dosage 20 g/ha, scored visually after 3 weeks vs untreated controls, 100% = plants have died, 0% = like control plants, read-out: Pre-emergence action against ABUTH (herbicidal activity in percent)",100%
same,pest or weed control at 80 g/ha,ALOMY [2],80%
same,pest or weed control at 20 g/ha,AMARE [3]; 20 g/ha,90%
same,pest or weed control at 80 g/ha,AMARE [3]; 80 g/ha,100%
same,pest or weed control at 80 g/ha,AVEFA [4],90%
same,pest or weed control at 80 g/ha,ECHCG [5],100%
same,pest or weed control at 80 g/ha,LOLRI [6],80%
same,pest or weed control at 20 g/ha,MATIN [7]; dosage 20 g/ha,100%
same,pest or weed control at 80 g/ha,MATIN [7]; dosage 80 g/ha,100%
same,pest or weed control at 80 g/ha,PHBPU [8],80%
same,pest or weed control at 80 g/ha,POLCO,90%
same,pest or weed control at 20 g/ha,SETVI [9]; dosage 20 g/ha,80%
same,pest or weed control at 80 g/ha,SETVI [9]; dosage 80 g/ha,100%
same,pest or weed control at 20 g/ha,STEME [10]; dosage 20 g/ha,100%
same,pest or weed control at 80 g/ha,STEME [10]; dosage 80 g/ha,100%
same,pest or weed control at 80 g/ha,VERPE [11],90%
same,pest or weed control at 20 g/ha,VIOTR [12]; dosage 20 g/ha,100%
same,pest or weed control at 80 g/ha,VIOTR [12]; dosage 80 g/ha,100%
same,pest or weed control at 20 g/ha,DIGSA [13]; dosage 20 g/ha,100%
same,pest or weed control at 80 g/ha,DIGSA [13]; dosage 80 g/ha,100%
same,pest or weed control at 5 g/ha,ABUTH [14]; dosage 5 g/ha,90%
same,pest or weed control at 20 g/ha,ABUTH [14]; dosage 20 g/ha,90%
same,pest or weed control at 20 g/ha,ALOMY [15],90%
same,pest or weed control at 20 g/ha,AMARE [16],90%
same,pest or weed control at 20 g/ha,AVEFA [17],90%
same,pest or weed control at 5 g/ha,ECHCG [18]; dosage 5 g/ha,80%
same,pest or weed control at 20 g/ha,ECHCG [18]; dosage 20 g/ha,90%
same,pest or weed control at 20 g/ha,HORMU,90%
same,pest or weed control at 20 g/ha,LOLRI [19],80%
same,pest or weed control at 20 g/ha,MATIN [20],80%
same,pest or weed control at 5 g/ha,PHBPU [21]; dosage 5 g/ha,80%
same,pest or weed control at 20 g/ha,PHBPU [21]; dosage 20 g/ha,90%
same,pest or weed control at 5 g/ha,SETVI [22]; dosage 5 g/ha,80%
same,pest or weed control at 20 g/ha,SETVI [22]; dosage 20 g/ha,90%
same,pest or weed control at 20 g/ha,STEME [23]; 20 g/ha,90%
same,pest or weed control at 5 g/ha,STEME [23]; dosage 5 g/ha,90%
same,pest or weed control at 20 g/ha,VERPE [24],80%
same,pest or weed control at 20 g/ha,VIOTR [25],90%
same,pest or weed control at 5 g/ha,DIGSA [26]; 5 g/ha,90%
same,pest or weed control at 20 g/ha,DIGSA [26]; 20 g/ha,90%
